This is an account of results in patent publication US7390836B2, “Small molecules used to increase cell death” (priority 1999, dated 2008).

Data set [1] has as its target T1, Bad-GFP with Bcl-2 or Bcl-xL in BSC-1 cells (Homo sapiens, UniProt Q07817).
T1 construct: expressed in transfected cells; host or cells: BSC-1 cells
The data set can be described thus: Bad-GFP localization in intact cells. The conditions noted are these: for order of activities, Bad-GFP localization: rank order; for mitochondrial targeting and heterodimerization of Bad-GFP: BH3I-1 100 μM, BH3I-2 50 μM, 6 hr, 100 μM zVAD. Type of data set: cell-based. The method, then:
Bad is a pro-apoptotic member of the Bcl-2 family, whose apoptosis-promoting activity and mitochondrial targeting depends on heterodimerization with anti-apoptotic Bcl-2 family members (Zha et al., Cell 87, 619-28, 1996). To examine the effects of BH3Is on Bad localization, BSC-1 cells were transfected with 5 μg of Bad-GFP expression vector alone (FIG. 8D, panels 1 […]) or were co-transfected with 5 μg of Bad-GFP and 5 μg of Bcl-xL-T7 (FIG. 8D, panels 2-5). Twenty four hours after transfection, cells were treated with BH3I-1 (100 μM; FIG. 8D, panel 4) or BH3I-2 (50 μM; FIG. 8D, panel 5) for 6 hr. In order to determine mitochondrial localization, cells were pre-stained with MitoTracker Red CMXRos for 30 min prior to fixation (FIG. 8D, panel 2). All cells in this study were pretreated with 100 μM zVAD to decrease the detrimental effects of overexpression of proapoptotic Bcl-2 proteins on cell viability.
(§1) BH3Is disrupted the mitochondrial association of Bad, but not Bcl-xL, after in vitro treatment of the mitochondria isolated from 293 cells co-transfected with Bad and Bcl-xL (FIG. 8C). The relative activities of the BH3Is in this assay (BH3I-2>BH3I-1>BH3I-1″) were consistent with the previous results. […] Again, the order of the activities in these assays was BH3I-2>BH3I-1>BH3I-1″.

Data set [2] concerns the target T2, Bad / Bcl-xL on mitochondria isolated from 293 cells (Homo sapiens, UniProt Q07817).
T2 construct: expressed in transfected cells; host or cells: 293 cells (isolated mitochondria)
The data set can be described thus: Mitochondrial association of Bad in isolated mitochondria. As to conditions: rank order. The method, then: FIG. 8C is an images of a the expression of Bad and Bcl-xL in 293 cells co-transfected with HA-Bad and Bcl-xL-T7. After 48 hr, cells were harvested and isolated mitochondria were treated with BH3Is for 2 hrs. Following treatment, mitochondria were pelleted by centrifugation and subjected to Western blot analysis using anti-HA and anti-T 7 antibodies.
as §1

Another data set deals with Jurkat cells. Briefly: Cytotoxicity by MTS assay and propidium iodide uptake. Type of data set: cell-based. The method, then: Since BH3Is induce apoptosis, their mode of action, for example, through disruption of BH3 domain interactions, was investigated next. If apoptosis induced by a BH3I is BH3-dependent, then cytotoxicity should correlate with the compound's ability to disrupt BH3 domain interactions in vitro. To examine this possibility, Jurkat cells were treated with the BH3 Is and the occurrence of cell death was assayed by the MTS assay and propidium iodide (PI) uptake (FIG. 7A). The cytotoxicity of BH3-Is followed the order of BH3I-2′>BH3I-2>BH3I-2″>BH3I-1>BH3I-1′>BH3I-1″>BH3I-1′″ which paralleled the order of their Ki values determined using in vitro Bcl-xL binding assays (FIGS. 7B and 7C). Similar data were obtained using a trypan blue exclusion assay.
Background: Tetrazolium dyes change colour on reduction, which living cells bring about.

Another data set concerns BH3/Bcl-xL binding. The data set can be described thus: SELDI binding assay, unlabeled Bak BH3 peptide on immobilized Bcl-xL-His6. The conditions noted are these: for relative activity in SELDI assay: comparison between compounds. An excerpt:
To test the possibility that BH3Is target the OREGON GREEN moiety of the fluorescently labeled BH3 peptide, a novel BH3/Bcl-xL binding assay using unlabeled BH3 peptide was designed. In this assay Bcl-xL was covalently attached to a surface-enhanced laser desorption/ionization (SELDI) chip, and binding of the unlabelled BH3 peptide to the immobilized protein was monitored by mass spectrometry. Specifically, purified recombinant GST-Bcl-2 and BCL-xL-His6 were coupled through their primary amines to SELDI chip surfaces derivatized with carbonyldiimidazole (Ciphergen). Bak BH3 peptide was then added (in a total volume of 1 μl) for 12 hours at 4° C. in a humidified chamber, to allow binding to each spot of the SELDI chip. The chip was then washed with alternating high and low pH-0.1M sodium acetate with 0.5M NaCl, followed by 0.01M HEPES; pH 7.3. The samples were embedded in α-cyanno-4-hydroxycinnamaic acid matrix and analyzed for mass by MALDI TOF. An average of 100 laser shots at a constant setting were collected over 20 spots in each sample.

[3] abbreviates: MTS assay and PI uptake, rank order.

Like-named read-outs stand apart in the source and are kept apart here.

T1 sequence (Q07817 whole entry): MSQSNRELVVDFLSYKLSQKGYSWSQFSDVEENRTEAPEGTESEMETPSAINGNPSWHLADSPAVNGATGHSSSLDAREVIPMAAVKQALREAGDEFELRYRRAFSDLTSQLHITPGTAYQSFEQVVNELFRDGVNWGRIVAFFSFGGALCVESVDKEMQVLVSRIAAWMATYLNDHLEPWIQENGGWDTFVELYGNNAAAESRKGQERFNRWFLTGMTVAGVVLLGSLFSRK
T2 sequence (Q07817 whole entry): as above

`CC(C)C(C(=O)O)N1C(=O)/C(=C/c2ccccc2)SC1=S` (stereo not drawn) [BH3I-1″]: the “order of activities, Bad-GFP localization” value (“order of activities” for short) in data set [1] was “BH3I-2>BH3I-1>BH3I-1″”. Besides, in data set [2], the “relative activities, mitochondrial association of Bad” value (“relative activities” below) is recorded as “BH3I-2>BH3I-1>BH3I-1″”. Also, in the data set with Jurkat cells, the order of cytotoxicity entry is “BH3I-2′>BH3I-2>BH3I-2″>BH3I-1>BH3I-1′>BH3I-1″>BH3I-1′″”. Further, in the data set with BH3/Bcl-xL binding, the “relative activity in SELDI assay” value was “lower potency than BH3I-1”.
As to `CC(C)C(C(=O)O)N1C(=O)C(=Cc2ccc(Br)cc2)SC1=S` (stereo in doubt) [BH3I-1], in data set [1], the “mitochondrial targeting and heterodimerization of Bad-GFP” value is “efficiently disrupted mitochondrial targeting and heterodimerization of Bad-GFP”; the “order of activities” value was “BH3I-2>BH3I-1>BH3I-1″”. The “relative activities” value in data set [2] is “BH3I-2>BH3I-1>BH3I-1″”. Moreover, the order of cytotoxicity result in the data set on Jurkat cells (setting [3]) was “BH3I-2′>BH3I-2>BH3I-2″>BH3I-1>BH3I-1′>BH3I-1″>BH3I-1′″”. For the same compound, the “effect on BH3 peptide binding to Bcl-xL-modified SELDI surface” value with BH3/Bcl-xL binding is reported as “reduction of BH3 binding”.
Turning to `O=C(Nc1cc(S(=O)(=O)c2ccc(Cl)cc2)ccc1Cl)c1cc(Cl)cc(Br)c1O` [BH3I-2], in data set [1], the “mitochondrial targeting and heterodimerization of Bad-GFP” value is “efficiently disrupted mitochondrial targeting and heterodimerization of Bad-GFP”; the “order of activities” value was “BH3I-2>BH3I-1>BH3I-1″”. For the same compound, the “relative activities” value in data set [2] is on record as “BH3I-2>BH3I-1>BH3I-1″”. Besides, the order of cytotoxicity result in the data set on Jurkat cells (setting [3]) is recorded as “BH3I-2′>BH3I-2>BH3I-2″>BH3I-1>BH3I-1′>BH3I-1″>BH3I-1′″”. For the same compound, in the data set on BH3/Bcl-xL binding, the “effect on BH3 peptide binding to Bcl-xL-modified SELDI surface” value is reported as “reduction of BH3 binding” and the “relative activity in SELDI assay” value is recorded as “higher activity than BH3I-1”.
